Test results as given in patent publication US12508320B2, “Drug conjugate, pharmaceutical composition and method of treating hepatitis” (SeeCure Taiwan Co., Ltd., priority 2023, dated 2025).

Columns and labels:
[1] = clinical studies, Birinapant used in combination with HBV drugs such as Tenofovir or Entecavir; cited from earlier work
[2] = test system: HepG2 2.2.15 cells (a cell line that expresses the hepatitis B virus); test: In vitro cell line evaluation: HBsAg/HBeAg levels in culture media of HepG2 2.2.15 cells (AXSYM system kit); type: cell-based; design: HBsAg level: unit of the concentration uncertain; details: 6-9 days of incubation
Method: In the following experimental examples, when HepG2 2.2.15 cells (a cell line that expresses the hepatitis B virus) are used, the cells are maintained in Dulbecco's modified Eagle's medium (DMEM) (Gibco BRL, Grand Island, NY, USA) plus 10% fetal bovine serum (Hyclone, Logan, UT, USA), 100U/mL penicillin, […] streptomycin. HepG2.2.15 cells were seeded at the same density and used as a medium control. The experimental group is composed by administering the substance in the concentration specified by the manufacturer. All cultures were grown in humidified incubators at 37° C. and 5% CO2.
HepG2 2.2.15 cells were plated into 12-well microtiter plates. On day zero, the cells were washed several times with PBS and treated with tetracycline-free medium that contained either a test drug or a vehicle control group. Each test compound was screened at one concentration in triplicate. On day 3, day 6 and/or day 9, the medium was removed and replaced with fresh medium containing the compound. Twenty-four hours later, the medium was collected and clarified by centrifugation (Sorvall RT-6000D centrifuge, 1,000 rpm, 5 min). Media of HepG2 2.2.15 cells cultures were harvested at 3—, 6-, and 9-days post-HBV infection, and levels of hepatitis B surface antigen (HBsAg) and hepatitis B e antigen (HBeAg) in culture media were measured using an AXSYM system kit (Abbott Diagnostika).
In experimental example 1, five hepatitis treatment groups were prepared and added to HepG2 2.2.15 cells for evaluation. Group 1 is a control group containing only medium (PBS), whereby no drug compound is added. Group 2 is where a conventional drug Entecavir […] is used alone. Group 3 (CPD-0148) is directed to a compound of formula (IA2) […]. Group 4 (CPD-0150) is directed to a compound of formula (IA3) […]. Group 5 (CPD-0147) is directed to a compound of formula (IA4) […]. After 6-9 days of incubation with the above treatment groups, the levels of hepatitis B surface antigen (HBsAg) were measured using an AXSYM system kit (Abbott Diagnostika), and the results are shown in FIG. 10.
In experimental example 2, eight hepatitis treatment groups were prepared and added to HepG2 2.2.15 cells for evaluation. Group 1 is a control group containing only medium (PBS), whereby no drug compound is added. Group 2 is where a conventional drug Birinapant […] is used alone. Group 3 (CPD-0004) is directed to a compound of formula (IB1) […]. Group 4 (CPD-0030) is directed to a compound of formula (IB7) […]. Group 5 (CPD-0036) is directed to a compound of formula (IB2) […]. Group 6 (CPD-0133) is directed to a compound of formula (IB3) […]. Group 7 (CPD-0142) is directed to a compound of formula (IB4) […]. Group 8 (CPD-0186) is directed to a compound of formula (IB5) […]. After 6-9 days of incubation with the above treatment groups, the levels of hepatitis B surface antigen (HBsAg) were measured using an AXSYM system kit (Abbott Diagnostika), and the results are shown in FIG. 11.
In experimental example 3, thirteen hepatitis treatment groups were prepared and added to HepG2 2.2.15 cells for evaluation. Group 1 is a control group containing only medium (PBS), whereby no drug compound is added. Group 2 (Teno-Int) is where an intermediate of the conventional drug Tenofovir (100 mM; structure shown in first step of FIG. 3) is used alone. Group 3 (CPD-0134) is directed to a compound of formula (IC1) […]. Group 4 (CPD-0136) is directed to a compound of formula (IC2) […]. Group 5 (CPD-0137) is directed to a compound of formula (IC3) (510 mM). Group 6 (CPD-0138) is directed to a compound of formula (IC4) […]. Group 7 (CPD-0139) is directed to a compound of formula (IC5) […]. Group 8 (CPD-0143) is directed to a compound of formula (IC6) […]. Group 9 (CPD-0144) is directed to a compound of formula (IC7) […]. Group 10 (CPD-0149) is directed to a compound of formula (IC8) […]. Group 11 (CPD-0158) is directed to a compound of formula (IC9) […]. Group 12 (CPD-0169) is directed to a compound of formula (IC10) […]. […]

[3] = Experimental example 6, HepG2 2.2.15 cells, 100 mM (each), FIG. 15

**Q.** What does the source list for `CC[C@H](NC(=O)[C@H](C)NC)C(=O)N1C[C@@H](O)C[C@H]1Cc1c(-c2[nH]c3cc(F)ccc3c2C[C@@H]2C[C@H](O)CN2C(=O)[C@H](CC)NC(=O)[C@H](C)NC)[nH]c2cc(F)ccc12` [Birinapant]?
**A.** side effects [1]: cranial nerve palsies (or Bell's palsies); HBsAg level ([2]; Experimental example 2, HepG2 2.2.15 cells, 500 (unit uncertain), FIG. 11): capable of reducing the HBsAg level as compared with the control

**Q.** For `C=C1[C@H](CO)[C@@H](O)C[C@@H]1n1cnc2c(=O)[nH]c(N)nc21` [Entecavir], which HBsAg level ([2]; Experimental example 1, HepG2 2.2.15 cells, 100 (unit uncertain), FIG. 10) is on record?
**A.** Its HBsAg level is “capable of reducing the HBsAg level as compared with the control”.

**Q.** What about the HBeAg level [2, 3] of the same compound?
**A.** The HBeAg level was “effective in reducing the HBsAg and HBeAg levels as compared with the control”.

**Q.** And the HBsAg level [2, 3]?
**A.** Its HBsAg level is “effective in reducing the HBsAg and HBeAg levels as compared with the control”.

**Q.** With `CN[C@@H](C)C(=O)N[C@H](C(=O)N1CCC[C@H]1c1nc(C(=O)c2ccc(F)cc2)cs1)C1CCCCC1` [LCL161] as the compound, how does the HBsAg level ([2]; Experimental example 4, HepG2 2.2.15 cells, 500 (unit uncertain), FIG. 13) read?
**A.** Its HBsAg level is “capable of reducing the HBsAg level as compared with the control”.

**Q.** With `C[C@@H](O)Cn1cnc2c(N)ncnc21` [Teno-Int, (R)-1-(6-amino-9H-purin-9-yl)propan-2-ol] as the compound, how does the HBsAg level ([2]; Experimental example 3, HepG2 2.2.15 cells, 100 mM (IC3: 510 mM), FIG. 12) read?
**A.** The HBsAg level was “slightly reduced as compared to the control”.
